The values below come from PMC6365106 (Clinical pharmacology and therapeutics, 2016).

Structures are written as SMILES. Where only a bound is given, the exact number is not on record here.

The target in data set [1] is T1, OATP1B1 (Homo sapiens, UniProt Q9Y6L6).
T1 sequence (Q9Y6L6 1-691): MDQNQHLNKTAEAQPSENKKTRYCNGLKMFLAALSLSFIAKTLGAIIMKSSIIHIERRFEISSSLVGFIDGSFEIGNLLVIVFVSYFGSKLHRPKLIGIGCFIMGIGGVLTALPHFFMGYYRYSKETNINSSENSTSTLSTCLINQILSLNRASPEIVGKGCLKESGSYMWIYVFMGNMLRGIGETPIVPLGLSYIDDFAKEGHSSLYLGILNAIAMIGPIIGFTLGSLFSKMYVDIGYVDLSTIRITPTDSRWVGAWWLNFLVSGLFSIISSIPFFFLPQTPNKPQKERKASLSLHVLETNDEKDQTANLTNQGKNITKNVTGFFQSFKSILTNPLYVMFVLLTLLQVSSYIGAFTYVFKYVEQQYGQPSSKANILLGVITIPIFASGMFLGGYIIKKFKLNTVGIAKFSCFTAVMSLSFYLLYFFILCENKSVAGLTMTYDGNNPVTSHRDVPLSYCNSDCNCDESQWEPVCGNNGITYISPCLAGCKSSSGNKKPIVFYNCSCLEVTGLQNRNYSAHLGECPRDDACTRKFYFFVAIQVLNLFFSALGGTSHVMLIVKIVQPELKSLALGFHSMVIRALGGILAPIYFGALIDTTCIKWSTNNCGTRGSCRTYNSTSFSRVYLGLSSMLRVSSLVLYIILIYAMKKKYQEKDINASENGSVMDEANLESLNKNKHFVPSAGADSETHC
Kind of data set: in vitro. To be noted: oatp1b1-transfected cells. It counts as cell-based.

In data set [2] the target is T2, OAT1 (Homo sapiens, UniProt Q4U2R8).
T2 sequence (Q4U2R8 1-563): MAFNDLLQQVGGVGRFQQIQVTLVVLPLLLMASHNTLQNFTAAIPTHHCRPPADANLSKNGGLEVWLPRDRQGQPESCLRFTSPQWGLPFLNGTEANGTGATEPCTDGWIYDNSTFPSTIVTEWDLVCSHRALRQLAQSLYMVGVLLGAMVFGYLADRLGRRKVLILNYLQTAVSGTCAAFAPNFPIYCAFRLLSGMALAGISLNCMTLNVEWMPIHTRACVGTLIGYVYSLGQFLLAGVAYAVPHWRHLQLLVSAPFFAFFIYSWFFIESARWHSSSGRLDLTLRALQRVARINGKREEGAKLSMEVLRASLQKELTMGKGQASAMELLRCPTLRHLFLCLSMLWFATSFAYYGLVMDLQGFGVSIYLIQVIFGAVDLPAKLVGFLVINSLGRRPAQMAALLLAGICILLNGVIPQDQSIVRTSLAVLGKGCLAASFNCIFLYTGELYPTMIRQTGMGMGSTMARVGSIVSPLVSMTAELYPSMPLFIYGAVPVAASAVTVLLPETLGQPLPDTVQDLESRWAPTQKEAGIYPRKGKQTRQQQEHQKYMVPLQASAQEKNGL
Kind of data set: 3H-TDA uptake in OAT1-expressing HEK293 cells, blocked by probenecid. To be noted: HEK293, read-out: % inhibition at 30 μM. Format: cell-based.

Data set [3] has as its target T3, OAT3 (Homo sapiens, UniProt Q8TCC7).
T3 sequence (Q8TCC7 1-542): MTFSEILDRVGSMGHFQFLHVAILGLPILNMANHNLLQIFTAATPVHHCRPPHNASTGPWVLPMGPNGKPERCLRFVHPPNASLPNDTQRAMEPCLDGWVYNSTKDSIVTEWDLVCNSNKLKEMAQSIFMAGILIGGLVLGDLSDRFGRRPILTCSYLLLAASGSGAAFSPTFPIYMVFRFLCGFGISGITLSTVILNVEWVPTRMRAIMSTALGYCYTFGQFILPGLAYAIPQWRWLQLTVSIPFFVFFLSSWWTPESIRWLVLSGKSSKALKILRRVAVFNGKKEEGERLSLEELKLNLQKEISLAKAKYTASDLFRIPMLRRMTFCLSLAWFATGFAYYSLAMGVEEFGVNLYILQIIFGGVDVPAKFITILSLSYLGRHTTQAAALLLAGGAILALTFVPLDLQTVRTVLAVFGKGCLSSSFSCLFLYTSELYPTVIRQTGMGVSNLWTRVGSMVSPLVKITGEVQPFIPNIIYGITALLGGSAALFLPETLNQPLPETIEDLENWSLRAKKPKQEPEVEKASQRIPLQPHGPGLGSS
The experiment in a line: 3H-TDA uptake in OAT3-expressing HEK293 cells, blocked by probenecid. Format: cell-based. The note with it: HEK293, read-out: % inhibition at 30 μM.

Data set [4] concerns the target T1, OATP1B1. Kind of data set: in vitro. The note with it: hek293 cells.
The target in data set [5] is T2, OAT1. Kind of data set: 3H-HDA uptake in OAT1-expressing HEK293 cells, blocked by probenecid. The note with it: HEK293, read-out: % inhibition at 30 μM. It counts as cell-based.
The target in data set [6] is T3, OAT3. Kind of data set: 3H-HDA uptake in OAT3-expressing HEK293 cells, blocked by probenecid. Format: cell-based. To be noted: HEK293, read-out: % inhibition at 30 μM.
Data set [7] has as its target T1, OATP1B1. The experiment in a line: in vitro. To be noted: hek293 cells. The source holds these as a separate data set.

In general, inhibition refers to the drop in the measured response relative to a control, in per cent. On to `C[C@H](CCC(=O)NCC(=O)O)[C@H]1CC[C@H]2[C@@H]3CC[C@@H]4C[C@H](O)CC[C@]4(C)[C@H]3C[C@H](O)[C@]12C` [Glycodeoxycholate], for which the inhibition at 30 µM against OATP1B1 [1] is > 70%.
The term IC50 denotes the point on the concentration scale where inhibition reaches its midpoint. Read a low IC50 as greater potency. Turning to `O=C(O)CCCCCCCCCCCCC(=O)O` [TDA, tetradecanedioic acid], the inhibition at 30 µM at OAT1 [2] was > 30%; on OAT3 [3] it was > 70%. Also, the IC50 against OATP1B1 [4] was 1600 to 4000 nM.
As for `O=C(O)CCCCCCCCCCCCCCC(=O)O` [HDA, hexadecanedioic acid], the inhibition at 30 µM on OAT1 [5] is > 30%; at OAT3 [6], > 70%. The compound also came in with an IC50 on OATP1B1 [7] of 1600 to 4000 nM.
Regarding `C[C@H](CCC(=O)NCCS(=O)(=O)O)[C@H]1CC[C@H]2[C@@H]3CC[C@@H]4C[C@H](OS(=O)(=O)O)CC[C@]4(C)[C@H]3CC[C@]12C` [TLS, Taurolithocholate 3-sulfate], at OATP1B1 [1], the inhibition at 30 µM is > 70%.
